{"source": "patent US20240290133A1", "about": "“HERBAL COMPOSITION FOR BREAST CANCER PREVENTION” (priority 2021, published 2024)", "system": "MCF-7 breast cancer cells", "assay": "MCF-7 cell viability (PrestoBlue Cell Viability Reagent, fluorescence)", "type": "cell-based, human", "conditions": "individual ingredients, 2 mg/0.2 ml, 24 h, single replicate wells (Table 3)", "protocol": "In order to assess this activity, a well-established line of breast cancer cells used in cancer research was selected. MCF-7 is a widely studied cancer cell line derived from breast adenocarcinoma, it was proven to be a suitable model cell line for breast cancer investigations worldwide, including those regarding anticancer drugs.\nThe cells were cultured with growth medium and seeded in two 96 well plates incubated at 37 Celsius. The HCBCP solution was prepared by dissolving the powder in DPBS as per Table 1, below.\nThe obtained solutions were sterilized by 0.22-micron filtration.\nAn amount of 0.2 ml was applied in each test tube providing 2 mg of HCBCP. […]\nAfter incubation period of 24 and 48 hours, cell viability was measured using PrestoBlue™ Cell Viability Reagent, according to manufacturer instructions.\nFluorescence was detected at excitation wavelength of 560 nm and an emission of 590 nm, using TECAN SPARK 10M microplate reader, at 24 and 48 hours after application. The fluorescence data is expressed as percentage of cell viability (%) compared to vehicle control.\nPercentage of cell viability was calculated using the following formula: [(fluorescence of treated cells−mean background fluorescence)/(fluorescence of cells with vehicle control−mean background fluorescence)]×100, at 24 and 48 hours after application. […]", "note": "Several values for one entry are separate records, joined by “and”; a condition that tells them apart may be missing. Identical values can stand only once."}
{"compound": "O=c1c(O)c(-c2ccc(O)c(O)c2)oc2cc(O)cc(O)c12", "note": "[BF 2 Q, Quercetin]", "values": [{"measurement": "FU-background", "value": "16881.00 FU and 16665.00 FU and 15291.00 FU and 14944.00 FU"}, {"measurement": "Fluorescence units (FU)", "value": "22892 FU and 22876 FU and 21302 FU"}]}
